Consider 2 compounds from patent publication US20230151432A1, “KIF18A INHIBITORS FOR TREATMENT OF NEOPLASTIC DISEASES” (AMGEN INC., priority 2020, published 2023).

The target in test [1] is T1, mouse KIF18A (residues 1-467) (Mus musculus, UniProt Q91WD7).
T1 construct: mouse KIF18A (residues 1-467, 4 nM); made in house
Put plainly: KIF18A MT-ATPase motor activity, ADP-Glo luminescence assay (Example 19). Particulars: mouse KIF18A 4 nM, 30 μM ATP; read-out: IC50, KIF18A motor activity (MT-ATPase). The class given is biochemical. Here is the method: A trio of KIF18A inhibitors (Compound C9, Compound C11, and Compound C12) were synthesized and tested in vitro for KIF18A inhibitory activity. […] The values represent mean t SEM from three independent experiments. […] As in vivo studies in mice were planned, the mouse KIF18A inhibitory effects of Compound C9 and C12 were assayed.
KIF18A compounds C9, C11, C12 were 2-fold serially diluted over a 22-point concentration range in DMSO using 384-well plate (Corning). Recombinant truncated kinesin motor proteins (human KIF18A (residues 1-467, 4 nM), mouse KIF18A (residues 1-467, 4 nM)) were expressed and purified. ADP-Glo luminescence assay (Promega) was used to measure the MT-ATPase motor activity. Porcine brain MTs were procured from Cytoskeleton Inc. Compounds were pre-incubated for <30 min in reaction buffer (15 mM Tris, pH 7.5, 10 mM MgCl2, 0.01% Pluronic F-68, 2% DMSO, 1 μM paclitaxel, 30 μg/mL MTs) with motor proteins at concentrations indicated above, 30 μM ATP was added to initiate the enzymatic reaction for 15 min at room temperature (RT). ADP-Glo reagents were added according to manufactures protocol, the luminescence intensity proportional to ADP present was measured using an EnVision plate reader (Perkin Elmer). Raw luminescence signal data was normalized to POC (percentage of positive control) and then Activity (%) was computed [POC=100×(sample signal−negative control signal)+(positive control signal−negative control signal). Activity (%)=POC−100]. The positive control (enzyme+substrate) and negative control (substrate alone) had equivalent concentrations of DMSO. Curve-fitting and IC50 values were determined by 4-parameter non-linear regression equation (variable slope) using GraphPad Prism 7.05 (GraphPad Software).

The test system of test [2] is human OVCAR-3 HGSOC xenograft model (TP53MUT, CCNE1AMP). Put plainly: OVCAR-3 xenograft efficacy study, oral dosing (Example 3). The following applies: for tumor regression: day 25 to day 45. The format is in vivo, mouse. Here is the method: Female athymic nude mice were injected with 5×10^6 cells in 0.1 mL subcutaneously in the right flank. After tumors were established (average tumor volume of 150 mm^3), animals were randomized into 4 treatment groups (vehicle alone, KIF18A inhibitor at 10, 30, or 100 mg/kg) with 10 animals per group and treated orally once per day (PO, QD) starting on day 25 post-tumor implantation. Tumor measurement was calculated from the length, width and height of tumors measured with a PRO-MAX electronic digital caliper (Japan Micrometer Mfg. Co. LTD). The tumor volume was calculated as [L×W×H] and expressed in mm^3. Tumor volume and animal body weight measurements were determined twice per week (study start day 25, study end day 45). A single mouse was removed from the study (KIF18A inhibitor 30 mg/kg group) due to abdominal distention, a finding likely unrelated to compound.
Tumor Growth Inhibition (TGI) and Tumor Regression formulas.
Data was plotted using GraphPad Prism software (V7.0.4), tumor volume and body weight data are expressed as means plus or minus standard error of the mean and plotted as a function of time. Statistical significance of observed differences between growth curves were calculated using SLACR package (v.1.0.3). Statistical significance for tumor regressions were performed by paired Student's t-Test on the initial and final tumor volumes with significant tumor regression p-values (***p≤0.0001) for all three KIF18A inhibitor treatment groups. KIF18A inhibitor dose 10 mg/kg (81% regression, 5 of 10 tumor-free), 30 mg/kg (98% regression, 8 of 9 tumor-free), and 100 mg/kg (97% regression, 7 of 10 tumor-free).

Bounds are passed on as bounds.

T1 sequence (Q91WD7 1-467): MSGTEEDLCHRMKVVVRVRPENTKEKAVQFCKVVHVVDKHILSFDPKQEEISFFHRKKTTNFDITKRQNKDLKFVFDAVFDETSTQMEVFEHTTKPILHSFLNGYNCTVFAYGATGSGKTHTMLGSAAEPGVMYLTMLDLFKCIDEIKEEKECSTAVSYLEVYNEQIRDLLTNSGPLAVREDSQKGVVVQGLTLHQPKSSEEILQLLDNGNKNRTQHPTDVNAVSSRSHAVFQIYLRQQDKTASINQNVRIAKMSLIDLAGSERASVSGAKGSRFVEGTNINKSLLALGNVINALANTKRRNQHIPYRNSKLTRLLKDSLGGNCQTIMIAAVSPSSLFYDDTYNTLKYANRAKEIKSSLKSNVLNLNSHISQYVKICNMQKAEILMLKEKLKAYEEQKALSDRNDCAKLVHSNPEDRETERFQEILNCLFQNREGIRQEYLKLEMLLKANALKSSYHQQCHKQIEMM
T1 sequence (P02550 whole entry partner, the tested form may be a part): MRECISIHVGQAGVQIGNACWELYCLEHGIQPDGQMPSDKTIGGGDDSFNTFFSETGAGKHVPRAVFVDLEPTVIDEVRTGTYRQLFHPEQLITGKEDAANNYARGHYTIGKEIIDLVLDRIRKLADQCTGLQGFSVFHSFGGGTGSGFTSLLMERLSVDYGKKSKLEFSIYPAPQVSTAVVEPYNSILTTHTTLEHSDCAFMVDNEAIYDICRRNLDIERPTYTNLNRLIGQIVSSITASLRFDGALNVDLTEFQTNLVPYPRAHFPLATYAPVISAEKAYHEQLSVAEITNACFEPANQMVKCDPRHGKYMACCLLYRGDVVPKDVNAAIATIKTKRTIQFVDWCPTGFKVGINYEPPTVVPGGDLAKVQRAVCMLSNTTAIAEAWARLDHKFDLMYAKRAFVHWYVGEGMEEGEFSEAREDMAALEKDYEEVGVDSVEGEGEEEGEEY
T1 sequence (P02554 whole entry partner, the tested form may be a part): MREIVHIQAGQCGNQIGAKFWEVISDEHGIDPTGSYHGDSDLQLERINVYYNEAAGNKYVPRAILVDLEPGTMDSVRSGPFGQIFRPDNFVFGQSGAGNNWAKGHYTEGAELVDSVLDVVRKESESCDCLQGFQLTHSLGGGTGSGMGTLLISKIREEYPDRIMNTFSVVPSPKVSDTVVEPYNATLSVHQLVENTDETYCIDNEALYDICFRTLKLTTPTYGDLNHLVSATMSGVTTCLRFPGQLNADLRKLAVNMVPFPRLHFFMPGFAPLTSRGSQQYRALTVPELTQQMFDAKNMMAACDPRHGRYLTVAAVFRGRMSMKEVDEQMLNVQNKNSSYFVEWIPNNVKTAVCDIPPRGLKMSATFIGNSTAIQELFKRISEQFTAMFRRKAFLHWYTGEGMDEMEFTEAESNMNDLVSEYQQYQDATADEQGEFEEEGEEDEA

With `CC(C)(C)NS(=O)(=O)c1cccc(NC(=O)c2ccc(S(=O)(=O)NC(C)(C)C)cc2N2CCC3(CC2)CC3)c1` [Compound C9, 4-(N-(tert-butyl)sulfamoyl)-N-(3-(N-(tert-butyl)sulfamoyl)phenyl)-2-(6-azaspiro[2.5]octan-6-yl)benzamide], the IC50 in test [1] stood at 0.232 µM.

`Cc1cc(NC(=O)c2ccc(NS(=O)(=O)CCO)cc2N2CCC3(CC2)CC3)nc(N2CCC(F)(F)CC2)n1` [Compound C14, N-(2-(4,4-Difluoropiperidin-1-yl)-6-methylpyrimidin-4-yl)-4-((2-hydroxyethyl)sulfonamido)-2-(6-azaspiro[2.5]octan-6-yl)benzamide]: the tumor-free animals in test [2] (10 mg/kg PO QD) is given as 5 of 10; in test [2] (30 mg/kg PO QD), 8 of 9; in test [2] (100 mg/kg PO QD), 7 of 10. In addition, the tumor regression in test [2] (10 mg/kg PO QD) stood at 81%; in test [2] (30 mg/kg PO QD), 98%; in test [2] (100 mg/kg PO QD), 97%. Further, the “durable tumor regressions and cures, share of the animals” value in test [2] (tumor re-growth assessment after cessation of treatment) was ≥ 50%.
